Results from US6949516B2, “Dipeptide apoptosis inhibitors and the use thereof” (Cytovia, Inc., priority 1997, dated 2005).

How the values were obtained:
[1] = tested on: PARP cleavage in Jurkat cells; assay: Inhibition of PARP cleavage in antiFas-treated Jurkat cells (Example 22, Western blot); type: cell-based, human; settings: for inhibition of PARP cleavage: antiFas-treated Jurkat cells
Excerpt: The cleavage of the enzyme poly(ADP)ribose polymerase (PARP) appears to occur in all cells in which the caspase proteolytic cascade is activated. For this reason, PARP cleavage is widely used as a biochemical marker for caspase-mediated apoptosis. The ability of a cytoprotective drug to block PARP cleavage is considered to be an indication of the drug's ability to inhibit the caspase proteolytic cascade and, in particular, CPP32 (caspase-3), the main PARP protease. The ability of Cbz-Val-Asp(OMe)-CH2F to inhibit PARP cleavage was examined during Fas-mediated apoptosis of Jurkat cells, a human T-cell line. This cell culture model of apoptosis is well-characterized and is known to involve activation of at least two caspases, caspase-3 (CPP32) and caspase-8 (FLICE/MACH).
For PARP cleavage assays, Jurkat cells were seeded at a density of 500,000 cells per well in six-well multidishes in RPMI 1640 medium containing 10% FBS. The cells were pre-incubated with Cbz-Val-Asp(OMe)-CH2F or other test compounds for 2 hours at 37° C. in a CO2 incubator and then a monoclonal antibody to Fas was added at a final concentration of 500 ng/mL. Incubation at 37° C. in a CO2 incubator was continued for an additional 4 hours. […] An amount of lysate corresponding to 10 to 20 μg of protein was loaded on a 7.5% SDS polyacrylamide gel and electrophoresed for 2 to 2.5 hrs at 25 mA. The protein was then transferred to a PVDF membrane, probed with a rabbit polyclonal antibody to PARP, and visualized using chemiluminescence.
Jurkat cells were pre-incubated with 0.5, 5, or 50 μM of the following compounds: Cbz-Val-Asp(OMe)-CH2F (compound 1); BOC-Asp(OMe)-CH2F (compound 5); Cbz-Asp-α-([2,6-dichlorobenzoyloxy]-methyl ketone) (compound 6), Cbz-Glu(OMe)-Val-Asp(OMe)-CH2F (compound 3), Cbz-Asp(OMe)-Glu(OMe)-Val-Asp(OMe)-CH2F (SEQ ID NO:1) (compound 2), Cbz-Ile-Glu(OMe)-Thr-Asp(OMe)-CH2F (SEQ ID NO:2) (compound 4), or Cbz-Val-Ala-Asp(OMe)-CH2F (compound 7). The cells were then treated with antiFas and processed for Western Blotting.

HeLa cells = assay: Effect of Z-VD-fmk on TNF-α-induced cell death in HeLa cells (calcein AM, Example 25); type: cell-based; settings: TNF-α 25 ng/mL + CHX 30 μg/mL, zero to 500 nM tested
Experimental: Tumor necrosis factor alpha (TNF-α) can trigger apoptosis in a number of cell types by initiating the caspase cascade and its apoptosis inducing activity can be inhibited by peptide-based caspase inhibitors. However, high concentrations of the inhibitors (50 μM or greater) is required to have good anti-apoptotic effect. HeLa cells, a cell line commonly employed in TNF-α cell death studies, was used here to determine the anti-apoptotic potency of Z-VD-fmk.
HeLa cells were seeded in 48-well multidishes at a density of 50,000 cells per well 24 hours before treatment. They were then pre-incubated with varying concentrations of Z-VD-fmk for 2 hours and challenged with TNF-α (25 ng/mL) and cycloheximide (CHX; 30 μg/mL). The cultures were incubated for an additional 24 hours and dead cells were removed by two washes with PBS. The density of surviving cells was then measured by incubating each culture for 45 minutes with calcein AM, a profluorescent dye which is taken up by living cells and converted to a fluorescent product. The resulting data were expressed as % control values (control values were cells incubated with cycloheximide but without TNF-α).
Z-VD-fmk provided good cytoprotection at concentrations approaching 100 nM.

[2] = tested on: mouse liver apoptosis model; assay: Mouse liver apoptosis model (antiFas-induced lethality); type: in vivo; settings: mice
Experimental: The in vivo activity of the cell death inhibitors of the invention can be tested using the “mouse liver apoptosis” model described by Rodriguez et al. (Rodriguez et al., J. Exp. Med., 184:2067-2072 (1996)). In this model, mice are treated intravenously (IV) with an antiFas antibody which induces massive apoptosis in the liver and other organs, leading to generalized organ failure and death. This model is useful for indirectly testing the systemic bioavailability of the cell death inhibitors of the invention, as well as their in vivo anti-apoptotic properties. The cell death inhibitors of the invention therefore can be used to reduce or prevent apoptosis of liver cells (Jones et al. Hepatology 27: 1632-42 (1998)) such as in sepsis (Jaeschke et al. J. Immunol. 160: 3480-3486 (1998)) and hereditary tyrosinemia type 1 (HT1) (Kubo et al. Prov. Natl. Acad Sci. USA, 95: 9552-9557 (1998). The cell death inhibitors of the invention also can be used to treat hepatitis (Suzuki, Proc. Soc. Exp. Biol. Med. 217: 450-454 (1998)).
Three to four week old female mice were used in the studies. Liver degeneration was induced by intravenous injection with 2-6 μg of a purified hamster anti-mouse Fas monoclonal antibody (clone Jo2, Pharmingen) against mouse Fas antigen diluted in 80 μl of phosphate buffered physiological saline (Rodriguez, et al., 1996). Mortality was used as the end point to assess liver degeneration. Cbz-Val-Asp-CH2F was formulated in Tris buffer for intravenous infusion and tested at a dose of 1-10 mg/kg given IV via the tail vein. Ten minutes later, animals were injected with Fas antibody. Mortality was counted at 30 mins, 1, 3 and 24 h. For each compound there were groups of control animals that receive Fas antibody only.

| Structure (SMILES) | inhibition of PARP cleavage ([1]; 0.5 μM) | inhibition of PARP cleavage ([1]; 5 μM) | inhibition of PARP cleavage ([1]; 50 μM) | concentration blocking the caspase proteolytic cascade in intact cells, fold lower than other known caspase inhibitors ([1]; Jurkat cells) | concentration providing good cytoprotection against TNF-α-induced cell death (HeLa cells) | induction of the liver enzymes SPGT and SGOT ([2]; antiFas, separate studies) | protection from antiFas-induced lethality ([2]; single 1 mg/kg IV dose, up to 1 h after antibody administration) | survival ([2]; up to 24 h after antiFas) |
| --- | --- | --- | --- | --- | --- | --- | --- | --- |
| COC(=O)CC(NC(=O)C(NC(=O)OCc1ccccc1)C(C)C)C(=O)CF (stereo not drawn) [Cbz-Val-Asp(OMe)-CH2F, Z-Val-Asp-fmk Methyl Ester] | significant inhibition | completely inhibited | completely inhibited | at least 10 fold |  |  |  |  |
| CC(C)[C@H](NC(=O)OCc1ccccc1)C(=O)NC(CC(=O)O)C(=O)CF (stereo partly drawn) [Cbz-Val-Asp-CH2F, Z-Val-Asp-fmk] |  |  |  |  | ~100 nM | attenuation | completely protected | 28% |
